Laboratory results: patent US9834542B2, “LXR modulators” (BRISTOL-MYERS SQUIBB COMPANY, priority 2013, dated 2017)

Target: T1, LXRβ (Homo sapiens, UniProt P55055)
T1 construct: Co-transfection expression plasmids, comprising full-length LXRα (pCMX-h LXRα[…] or LXRβ (pCMX-hLXRβ)); expressed in transfected cells; host or cells: CV-1 African Green Monkey Kidney Cells
T1 sequence (P55055 1-460): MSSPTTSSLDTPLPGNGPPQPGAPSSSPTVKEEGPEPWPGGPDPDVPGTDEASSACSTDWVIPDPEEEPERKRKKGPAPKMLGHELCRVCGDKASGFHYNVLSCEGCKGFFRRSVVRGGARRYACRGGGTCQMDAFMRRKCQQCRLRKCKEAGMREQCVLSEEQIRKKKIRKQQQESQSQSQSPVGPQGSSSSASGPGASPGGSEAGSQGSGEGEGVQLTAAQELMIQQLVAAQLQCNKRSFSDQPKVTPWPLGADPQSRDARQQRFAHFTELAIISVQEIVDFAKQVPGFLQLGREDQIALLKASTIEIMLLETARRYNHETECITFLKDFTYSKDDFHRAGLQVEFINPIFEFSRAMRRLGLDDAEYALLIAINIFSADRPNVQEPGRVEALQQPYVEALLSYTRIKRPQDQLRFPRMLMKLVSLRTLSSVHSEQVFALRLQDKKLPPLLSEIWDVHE
T1 sequence (P19793 1-462 partner): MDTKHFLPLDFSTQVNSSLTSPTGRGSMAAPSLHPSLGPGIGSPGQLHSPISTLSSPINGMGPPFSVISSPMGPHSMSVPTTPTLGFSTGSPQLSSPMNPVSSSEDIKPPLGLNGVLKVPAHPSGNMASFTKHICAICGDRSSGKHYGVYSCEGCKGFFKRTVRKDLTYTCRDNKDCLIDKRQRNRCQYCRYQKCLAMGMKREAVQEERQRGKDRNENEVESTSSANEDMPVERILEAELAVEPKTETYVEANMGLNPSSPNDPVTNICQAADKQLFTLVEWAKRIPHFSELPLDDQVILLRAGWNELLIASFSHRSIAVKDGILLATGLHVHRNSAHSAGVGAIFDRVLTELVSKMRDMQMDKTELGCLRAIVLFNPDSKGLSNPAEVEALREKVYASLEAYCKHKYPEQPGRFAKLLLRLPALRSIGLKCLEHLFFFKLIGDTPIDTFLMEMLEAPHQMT
Assay: Co-transfection assay (LXRE luciferase reporter), LXRβ
Assay type: cell-based
Details: for EC50: CV-1 cells transfected with pCMX-hLXRβ and LXREx1-Tk-Luciferase, 20 hours incubation; for Emax: LXRβ co-transfection, relative to high control 1-(2,4-difluorobenzyl)-2-oxo-6-(4-phenoxyphenyl)-4-(trifluoromethyl)-1,2-dihydropyridine-3-carbonitrile, read-out: % Efficacy
Summary of the method: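 CV-1 cells transiently co-transfected with full-length human LXRβ expression plasmid, LXREx1-Tk-luciferase reporter and β-galactosidase control, then exposed to compound for 20 h at 37 °C. Luciferase luminescence read; EC50 from 11-point, ½-log dose–response fit, efficacy relative to high-control agonist maximum.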

Row | Structure (SMILES) | EC50 [nM] | Emax [%]
1 | Cc1nc(C(F)F)c(C)n1-c1ccc(-c2cccc(S(C)(=O)=O)c2)cc1-n1nncc1-c1ccc(OC(F)(F)F)cc1 [Example 232, 1-(4-(4-(difluoromethyl)-2,5-dimethyl-1H-imidazol-1-yl)-3′-(methylsulfonyl)-[1,1′-biphenyl]-3-yl)-5-(4-(trifluoromethoxy)phenyl)-1H-1,2,3-triazole] | 1970 | 74
2 | Cc1nc(C(F)(F)F)cn1-c1c(Cl)cc(-c2cccc(S(C)(=O)=O)c2)cc1-n1nncc1-c1ccc(OC(F)(F)F)cc1 [Example 195, 1-{5-chloro-3′-(methylsulfonyl)-4-[2-methyl-4-(trifluoromethyl)-1H-imidazol-1-yl]biphenyl-3-yl}-5-{4-[(trifluoromethyl)oxy]phenyl}-1H-1,2,3-triazole] | 574 | 83
3 | COc1ccc(-c2cnnn2-c2cc(-c3cccc(S(C)(=O)=O)c3)ccc2-n2cc(C(F)(F)F)nc2C)cc1 [Example 26, 5-[4-(methyloxy)phenyl]-1-{3′-(methylsulfonyl)-4-[2-methyl-4-(trifluoromethyl)-1H-imidazol-1-yl]biphenyl-3-yl}-1H-1,2,3-triazole] | 541 | 93
4 | COc1cnc(-c2oc(C)nc2-c2cc(-c3cccc(S(C)(=O)=O)c3)ccc2-n2cc(C(F)(F)F)nc2C)cn1 [Example 412, 5-(5-methoxypyrazin-2-yl)-2-methyl-4-(4-(2-methyl-4-(trifluoromethyl)-1H-imidazol-1-yl)-3′-(methylsulfonyl)biphenyl-3-yl)oxazole] | 518 | 72
5 | Cc1nc(-c2cc(-c3cc(F)c(CO)c(S(C)(=O)=O)c3)ccc2-n2cc(C(F)(F)F)nc2C)c(-c2cccnc2Cl)o1 [Example 549, (3′-(5-(2-chloropyridin-3-yl)-2-methyloxazol-4-yl)-3-fluoro-4′-(2-methyl-4-(trifluoromethyl)-1H-imidazol-1-yl)-5-(methylsulfonyl)-[1,1′-biphenyl]-4-yl)methanol] | 483 | 87
6 | Cc1nc(-c2cc(-c3cc(F)c(CO)c(S(C)(=O)=O)c3)ccc2-n2cc(C(F)(F)F)nc2C)c(-c2cccnc2C)o1 [Example 395, (3-fluoro-4′-(2-methyl-4-(trifluoromethyl)-1H-imidazol-1-yl)-3′-(2-methyl-5-(2-methylpyridin-3-yl)oxazol-4-yl)-5-(methylsulfonyl)biphenyl-4-yl)methanol] | 1230 | 61
7 | Cc1nc(C(F)(F)F)cn1-c1c(F)cc(-c2cccc(S(=O)(=O)NCCO)c2)cc1-n1nncc1-c1ccc(OC(F)(F)F)cc1 [Example 208, 3′-fluoro-N-(2-hydroxyethyl)-4′-[2-methyl-4-(trifluoromethyl)-1H-imidazol-1-yl]-5′-(5-{4-[(trifluoromethyl)oxy]phenyl}-1H-1,2,3-triazol-1-yl)biphenyl-3-sulfonamide] | 1270 | 77
8 | Cc1nc(-c2ccc(OC(F)(F)F)cc2)c(-c2cc(-c3cccc([S+](C)[O-])c3)ccc2-n2cc(C(F)(F)F)nc2C)o1 (stereo not shown) [Example 627, 2-methyl-5-(4-(2-methyl-4-(trifluoromethyl)-1H-imidazol-1-yl)-3′-(methylsulfinyl)-[1,1′-biphenyl]-3-yl)-4-(4-(trifluoromethoxy)phenyl)oxazole] | 269 | 93
9 | Cc1nc(C(F)(F)F)cn1-c1ccc(-c2cccc(S(C)(=O)=O)c2)cc1-n1nncc1-c1ccc2occc2c1 [Example 86, 5-(1-benzofuran-5-yl)-1-{3′-(methylsulfonyl)-4-[2-methyl-4-(trifluoromethyl)-1H-imidazol-1-yl]biphenyl-3-yl}-1H-1,2,3-triazole] | 583 | 77
10 | COCCc1nc(-c2cc(-c3cccc(S(C)(=O)=O)c3)ccc2-n2cc(C(F)(F)F)nc2C)c(-c2ccc(Cl)cc2Cl)o1 [Example 553, 5-(2,4-dichlorophenyl)-2-(2-methoxyethyl)-4-(4-(2-methyl-4-(trifluoromethyl)-1H-imidazol-1-yl)-3′-(methylsulfonyl)-[1,1′-biphenyl]-3-yl)oxazole] | 156 | 60
11 | Cc1nc(-c2cc(-c3cccc(C4(C(N)=O)CC4)c3)ccc2-n2cc(C(F)(F)F)nc2C)c(-c2ccc(OC(F)F)c(F)c2)o1 [Example 438, 1-(3′-(5-(4-(difluoromethoxy)-3-fluorophenyl)-2-methyloxazol-4-yl)-4′-(2-methyl-4-(trifluoromethyl)-1H-imidazol-1-yl)biphenyl-3-yl)cyclopropanecarboxamide] | 1380 | 65
12 | Cc1nc(C(F)(F)F)cn1-c1ccc(-c2cccc(S(C)(=O)=O)c2)cc1-c1nc(CC(C)O)oc1-c1ccc(OC(F)(F)F)cc1 (stereo not shown) [Example 536, 1-(4-(4-(2-methyl-4-(trifluoromethyl)-1H-imidazol-1-yl)-3′-(methylsulfonyl)-[1,1′-biphenyl]-3-yl)-5-(4-(trifluoromethoxy)phenyl)oxazol-2-yl)propan-2-ol] | 280 | 82
13 | Cc1nc(C(F)(F)F)cn1-c1ccc(-c2cc(F)c(CO)c(S(C)(=O)=O)c2)cc1-n1nncc1C(=O)c1ccc(Cl)cc1 [Example 140, (4-chlorophenyl)(1-{3′-fluoro-4′-(hydroxymethyl)-5′-(methylsulfonyl)-4-[2-methyl-4-(trifluoromethyl)-1H-imidazol-1-yl]biphenyl-3-yl}-1H-1,2,3-triazol-5-yl)methanone] | 383 | 64
14 | Cc1nc(C(F)(F)F)cn1-c1ccc(-c2cccc(S(C)(=O)=O)c2)cc1-n1nncc1-c1ccc2[nH]ccc2c1 [Example 45, 5-(1-{3′-(methylsulfonyl)-4-[2-methyl-4-(trifluoromethyl)-1H-imidazol-1-yl]biphenyl-3-yl}-1H-1,2,3-triazol-5-yl)-1H-indole] | 1840 | 53

Now those with a lower EC50, led by results:

Row | EC50 [nM] | Emax [%] | Structure (SMILES)
15 | 76 | 54 | Cc1nc(C(N)=O)cn1-c1ccc(-c2cc(F)c(CO)c(S(C)(=O)=O)c2)cc1-c1nc(C2CC2)oc1-c1ccc2c(c1)OC(F)(F)O2 [Example 490, 1-(3-(2-cyclopropyl-5-(2,2-difluorobenzo[d][1,3]dioxol-5-yl)oxazol-4-yl)-3′-fluoro-4′-(hydroxymethyl)-5′-(methylsulfonyl)biphenyl-4-yl)-2-methyl-1H-imidazole-4-carboxamide]
16 | 74 | 81 | Cc1nc(C(F)(F)F)cn1-c1ccc(-c2cc(F)c(CO)c(S(C)(=O)=O)c2)cc1-c1ccnn1-c1ccc(Cl)cc1 [Example 288, {3′-[1-(4-chlorophenyl)-1H-pyrazol-5-yl]-3-fluoro-5-(methylsulfonyl)-4′-[2-methyl-4-(trifluoromethyl)-1H-imidazol-1-yl]biphenyl-4-yl}methanol]
17 | 57 | 45 | Cc1nc(-c2cc(-c3cc(F)c(CO)c(S(C)(=O)=O)c3)ccc2-n2cc(C(F)(F)F)nc2C)c(-c2cc(Cl)cc(Cl)c2)o1 [Example 456, (3′-(5-(3,5-dichlorophenyl)-2-methyloxazol-4-yl)-3-fluoro-4′-(2-methyl-4-(trifluoromethyl)-1H-imidazol-1-yl)-5-(methylsulfonyl)biphenyl-4-yl)methanol]
18 | 28 | 76 | Cc1nc(-c2cc(-c3cc(F)c(CO)c(S(C)(=O)=O)c3)ccc2-n2cc(C(F)(F)F)nc2C)c(-c2ccc(OC(F)F)c(Cl)c2)o1 [Example 399, (3′-(5-(3-chloro-4-(difluoromethoxy)phenyl)-2-methyloxazol-4-yl)-3-fluoro-4′-(2-methyl-4-(trifluoromethyl)-1H-imidazol-1-yl)-5-(methylsulfonyl)biphenyl-4-yl)methanol]
19 | 137 | 64 | Cc1nc(-c2cc(-c3cccc(S(C)(=O)=O)c3)ccc2-n2cc(C(F)(F)F)nc2C)c(-c2ccc(C(F)(F)F)cc2)o1 [Example 513, 2-methyl-4-(4-(2-methyl-4-(trifluoromethyl)-1H-imidazol-1-yl)-3′-(methylsulfonyl)biphenyl-3-yl)-5-(4-(trifluoromethyl)phenyl)oxazole]
20 | 58 | 70 | Cc1nc(-c2cc(-c3cc(F)c(CO)c(S(C)(=O)=O)c3)ccc2-n2cc(C(F)(F)F)nc2C)c(-c2ccc(F)c(Cl)c2)o1 [Example 509, (3′-(5-(3-chloro-4-fluorophenyl)-2-methyloxazol-4-yl)-3-fluoro-4′-(2-methyl-4-(trifluoromethyl)-1H-imidazol-1-yl)-5-(methylsulfonyl)biphenyl-4-yl)methanol]
